Measured values as given in PubChem BioAssay AID256 (DTP/NCI, 2004).
Where “and” joins values, the source holds several entries; their conditions need not be identical. Equal entries are not always repeated. Inconclusive results and toxic doses are left out. Rule for the calls: active = survival T/C of 150% or more; inactive = T/C below 125% in these data.

Test system: CD2F1 mice, L1210 leukemia ip, survival T/C
Assay: NCI In Vivo Anticancer Drug Screen. Data for tumor model L1210 Leukemia (intraperitoneal) in CD2F1 (CDF1) mice
Conditions: higher = longer survival
Procedure, shortened: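 Implant tumor; dose compound or vehicle; measure endpoint in both groups; report treated divided by control.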

[1] = endpoint: mean survival time, dose: 12.5 mg/kg/injection, schedule: Q01DX001 (ip), vehicle: saline
[2] = endpoint: mean survival time, dose: 25.0 mg/kg/injection, schedule: Q01DX001 (ip), vehicle: saline
[3] = endpoint: mean survival time, dose: 100.0 mg/kg/injection, schedule: Q01DX001 (ip), vehicle: saline with Tween-80
[4] = endpoint: mean survival time, dose: 200.0 mg/kg/injection, schedule: Q01DX001 (ip), vehicle: saline with Tween-80
[5] = endpoint: mean survival time, dose: 400.0 mg/kg/injection, schedule: Q01DX001 (ip), vehicle: saline with Tween-80
[6] = endpoint: mean survival time, dose: 100.0 mg/kg/injection, schedule: Q01DX009 (ip), vehicle: saline with Tween-80
[7] = endpoint: mean survival time, dose: 200.0 mg/kg/injection, schedule: Q01DX009 (ip), vehicle: saline with Tween-80
[8] = endpoint: mean survival time, dose: 400.0 mg/kg/injection, schedule: Q01DX009 (ip), vehicle: saline with Tween-80
[9] = endpoint: mean survival time, dose: 100.0 mg/kg/injection, schedule: Q04DX003 (ip), vehicle: saline with Tween-80
[10] = endpoint: mean survival time, dose: 200.0 mg/kg/injection, schedule: Q04DX003 (ip), vehicle: saline with Tween-80
[11] = endpoint: mean survival time, dose: 400.0 mg/kg/injection, schedule: Q04DX003 (ip), vehicle: saline with Tween-80

Measured: T/C

CN(C)CCCN1c2ccccc2Sc2ccc(Cl)cc21
inactive: [1] 107 % of control | endpoint: mean survival time, dose: 12.5 mg/kg/injection, schedule: Q01DX009 (ip), vehicle: saline with Tween-80 115 % of control | [2] 117 % of control | endpoint: mean survival time, dose: 25.0 mg/kg/injection, schedule: Q01DX009 (ip), vehicle: saline with Tween-80 86 % of control | endpoint: mean survival time, dose: 50.0 mg/kg/injection, schedule: Q01DX001 (ip), vehicle: saline 120 % of control | endpoint: mean survival time, dose: 100.0 mg/kg/injection, schedule: Q01DX001 (ip), vehicle: saline 111 % of control | endpoint: mean survival time, dose: 200.0 mg/kg/injection, schedule: Q04DX003 (ip), vehicle: saline 97 % of control | endpoint: median survival time, dose: 15.0 mg/kg/injection, schedule: Q01DX001 (ip), vehicle: water 118 % of control and 107 % of control | endpoint: median survival time, dose: 25.0 mg/kg/injection, schedule: Q01DX001 (ip), vehicle: water 119 % of control and 107 % of control | endpoint: median survival time, dose: 30.0 mg/kg/injection, schedule: Q04DX003 (ip), vehicle: saline 80 % of control | endpoint: median survival time, dose: 50.0 mg/kg/injection, schedule: Q01DX001 (ip), vehicle: water 114 % of control and 120 % of control | endpoint: median survival time, dose: 60.0 mg/kg/injection, schedule: Q04DX003 (ip), vehicle: saline 80 % of control | endpoint: median survival time, dose: 75.0 mg/kg/injection, schedule: Q01DX001 (ip), vehicle: water 114 % of control | endpoint: median survival time, dose: 120.0 mg/kg/injection, schedule: Q04DX003 (ip), vehicle: saline 87 % of control

COc1ccc(-c2nc(N)ncc2C)cc1
inactive: endpoint: mean survival time, dose: 100.0 mg/kg/injection, schedule: Q04DX002 (ip), vehicle: other 96 % of control | endpoint: mean survival time, dose: 200.0 mg/kg/injection, schedule: Q04DX002 (ip), vehicle: other 96 % of control | endpoint: mean survival time, dose: 400.0 mg/kg/injection, schedule: Q04DX002 (ip), vehicle: other 101 % of control

C/C(=C\Cl)CN(C)C
inactive: endpoint: mean survival time, dose: 50.0 mg/kg/injection, schedule: Q01DX009 (ip), vehicle: acetone 97 % of control | endpoint: mean survival time, dose: 100.0 mg/kg/injection, schedule: Q01DX009 (ip), vehicle: acetone 103 % of control

COc1ccccc1C(=O)CC(O)(C(F)(F)F)C(F)(F)F
inactive: [3] 95 % of control | [4] 100 % of control | [5] 109 % of control

C[n+]1ccc2ccccc2c1SC1CCC2CC3CC2C1C3 (centres undefined)
inactive: endpoint: mean survival time, dose: 10.0 mg/kg/injection, schedule: Q01DX009 (iv), vehicle: methylcellulose (MC) 97 % of control | endpoint: mean survival time, dose: 20.0 mg/kg/injection, schedule: Q01DX009 (iv), vehicle: methylcellulose (MC) 97 % of control

c1ccc(CN(c2ccccc2)C2CCCCC2)cc1
inactive: endpoint: mean survival time, dose: 100.0 mg/kg/injection, schedule: Q04DX003 (ip), vehicle: Klucel (hydroxypropylcellulose) (HPC) 91 % of control | endpoint: mean survival time, dose: 200.0 mg/kg/injection, schedule: Q04DX003 (ip), vehicle: Klucel (hydroxypropylcellulose) (HPC) 91 % of control

COC(=O)c1csc(C2OC(CO)C(O)C2O)n1 (centres undefined)
inactive: endpoint: mean survival time, dose: 25.0 mg/kg/injection, schedule: Q01DX005 (ip), vehicle: water 107 % of control | endpoint: mean survival time, dose: 50.0 mg/kg/injection, schedule: Q01DX005 (ip), vehicle: water 103 % of control | endpoint: mean survival time, dose: 100.0 mg/kg/injection, schedule: Q01DX005 (ip), vehicle: water 101 % of control | endpoint: mean survival time, dose: 200.0 mg/kg/injection, schedule: Q01DX005 (ip), vehicle: water 101 % of control | endpoint: mean survival time, dose: 400.0 mg/kg/injection, schedule: Q01DX005 (ip), vehicle: water 102 % of control

CCC(C)C(C(=O)O)c1ccccc1 (centres undefined)
inactive: [6] 104 % of control | [7] 101 % of control | [8] 98 % of control

Clc1ccccc1-c1nc2ccccc2s1
inactive: [3] 91 % of control | [9] 97 % of control | [4] 91 % of control | [10] 96 % of control | [5] 91 % of control | [11] 92 % of control

N#CC(/C=C/c1ccccc1)Nc1ccccc1N (centres undefined)
inactive: [6] 98 % of control | [7] 95 % of control | [8] 93 % of control

OCC1OC(n2cnc3c(NCCc4ccccc4)ncnc32)C(O)C1O (centres undefined)
inactive: endpoint: mean survival time, dose: 12.5 mg/kg/injection, schedule: Q01DX005 (ip), vehicle: other 101 % of control | endpoint: mean survival time, dose: 25.0 mg/kg/injection, schedule: Q01DX005 (ip), vehicle: other 110 % of control | endpoint: mean survival time, dose: 50.0 mg/kg/injection, schedule: Q01DX005 (ip), vehicle: other 92 % of control

CC(C)NCc1ccc2c(c1)OCO2
inactive: endpoint: mean survival time, dose: 75.0 mg/kg/injection, schedule: Q01DX001 (ip), vehicle: saline 98 % of control | endpoint: mean survival time, dose: 150.0 mg/kg/injection, schedule: Q01DX001 (ip), vehicle: saline 101 % of control

Cc1ccc(C(=O)c2nnc(C(=O)c3ccc(C)cc3)nn2)cc1
inactive: [9] 92 % of control | [10] 92 % of control | [11] 86 % of control

O=C(O)C1C=CC(C(=O)O)c2ccccc21 (centres undefined)
inactive: endpoint: mean survival time, dose: 100.0 mg/kg/injection, schedule: Q01DX001 (ip), vehicle: Klucel (hydroxypropylcellulose) (HPC) 91 % of control | endpoint: mean survival time, dose: 200.0 mg/kg/injection, schedule: Q01DX001 (ip), vehicle: Klucel (hydroxypropylcellulose) (HPC) 90 % of control | endpoint: mean survival time, dose: 400.0 mg/kg/injection, schedule: Q01DX001 (ip), vehicle: Klucel (hydroxypropylcellulose) (HPC) 91 % of control

CCCC1(c2ccccc2)C(=O)NCNC1=O
inactive: endpoint: median survival time, dose: 25.0 mg/kg/injection, schedule: Q01DX005 (ip), vehicle: Klucel (hydroxypropylcellulose) (HPC) 101 % of control | endpoint: median survival time, dose: 50.0 mg/kg/injection, schedule: Q01DX005 (ip), vehicle: Klucel (hydroxypropylcellulose) (HPC) 97 % of control | endpoint: median survival time, dose: 100.0 mg/kg/injection, schedule: Q01DX005 (ip), vehicle: Klucel (hydroxypropylcellulose) (HPC) 97 % of control | endpoint: median survival time, dose: 200.0 mg/kg/injection, schedule: Q01DX005 (ip), vehicle: Klucel (hydroxypropylcellulose) (HPC) 94 % of control | endpoint: median survival time, dose: 400.0 mg/kg/injection, schedule: Q01DX005 (ip), vehicle: Klucel (hydroxypropylcellulose) (HPC) 104 % of control

N#CCCOc1ccc(Cl)cc1
inactive: endpoint: mean survival time, dose: 50.0 mg/kg/injection, schedule: Q01DX009 (ip), vehicle: saline with Tween-80 107 % of control | [6] 97 % of control | [7] 96 % of control

CN(C)c1ccc(C(Cc2ccc(Nc3ccccc3)c3ccccc23)=C2C=CC(=[N+](C)C)C=C2)cc1
inactive: endpoint: mean survival time, dose: 3.13 mg/kg/injection, schedule: Q01DX001 (ip), vehicle: saline 96 % of control | endpoint: mean survival time, dose: 6.25 mg/kg/injection, schedule: Q01DX001 (ip), vehicle: saline 93 % of control | [1] 118 % of control and 93 % of control | [2] 106 % of control

CCCCCCCCCCCCOc1ccc(F)cc1C
inactive: endpoint: mean survival time, dose: 100.0 mg/kg/injection, schedule: Q04DX002 (ip), vehicle: saline with Tween-80 93 % of control | endpoint: mean survival time, dose: 200.0 mg/kg/injection, schedule: Q04DX002 (ip), vehicle: saline with Tween-80 93 % of control | endpoint: mean survival time, dose: 400.0 mg/kg/injection, schedule: Q04DX002 (ip), vehicle: saline with Tween-80 96 % of control
